Assay results as given in paper PMC6249675 (Structure (London, England : 1993), 2018).

How the values were obtained:
Rac1 [1] = biological target: T1, Rac1 (Homo sapiens, UniProt P63000); assay: strong anion exchange chromatography of co-purified nucleotide; assay type: binding; settings: co-purified from E. coli
Rnd3 = biological target: T2, Rnd3 (Homo sapiens, UniProt P61587); assay: as above; assay type: binding; settings: co-purified from E. coli; not hydrolysed
T2 sequence (P61587 19-200): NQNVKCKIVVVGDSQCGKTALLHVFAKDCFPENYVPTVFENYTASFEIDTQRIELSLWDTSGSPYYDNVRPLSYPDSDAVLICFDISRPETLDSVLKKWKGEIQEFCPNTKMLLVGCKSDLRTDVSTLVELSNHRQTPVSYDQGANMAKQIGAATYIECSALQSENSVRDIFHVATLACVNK

Rac1 [2] = biological target: T1, Rac1; assay: GTP hydrolysis followed by strong anion exchange chromatography; assay type: biochemical; settings: 5 mM GTP, 5 mM MgCl2, room temperature, 24 h

Nc1nc2c(ncn2[C@@H]2O[C@H](COP(=O)(O)OP(=O)(O)O)[C@@H](O)[C@H]2O)c(=O)[nH]1 [GDP]
strong anion exchange chromatography of co-purified nucleotide (Rac1 [1]): wild-type Rac1 which, like other active GTPases, is bound predominantly to GDP

Nc1nc2c(ncn2[C@@H]2O[C@H](COP(=O)(O)OP(=O)(O)OP(=O)(O)O)[C@@H](O)[C@H]2O)c(=O)[nH]1 [GTP]
strong anion exchange chromatography of co-purified nucleotide (Rnd3): N-GTPase is similar to the pseudoGTPase Rnd3, which binds only GTP (Fig. 4d)
GTP hydrolysis followed by strong anion exchange chromatography (Rac1 [2]): Rac1 (preloaded with GTP) exhibits complete hydrolysis of GTP to GDP in identical conditions
